Laboratory results reported in patent US4711879A, “Acylated sugar derivatives, processes for their manufacture, and their use” (Ciba-Geigy Corporation, priority 1984, dated 1987).

Legend:
[1] = test for pyrogenity in rabbits (European Pharmacopoeia); type: in vivo; conditions: 5 mg/kg i.v.
Method: The test for pyrogenity can be carried out in rabbits in accordance with the instructions given in the European Pharmacopoeia, Volume 2, pages 56 to 59 (1971). According to this test, for example N-propionyl- desmethylmuramyl-L-alanyl-D-isoglutaminyl-L-alanine-3-{2-[2-(2,6-dichlorophenylamino)-phenyl]-acetylamino}-2-hydroxypropylamide is not pyrogenic at a dose of 5 mg/kg i.v.

viruses = assay: prophylaxis and treatment of virus infections in animals; type: in vivo, mice or guinea pigs; conditions: tests on animals
Excerpt: In these animal tests, animals, such as mice or guinea pigs, are infected with the most varied types of viruses at a dose that is lethal to all or the great majority of the untreated (control) animals, for example LD80-90, and the course of the infection is observed in the untreated control animals in comparison with animals treated with one of the above-mentioned compounds or a salt thereof before, simultaneously with or after infection.
These compounds of the formula I are effective in as low a dosage range as from 0.0001 mg/kg to 0.1 mg/kg in the above-mentioned test in mice.

Row | Compound | pyrogenity [1] | suitability for prophylaxis and treatment of virus infections (viruses)
1 | CCC(=O)N(C1O[C@H](CO)[C@@H](O)[C@H](OCC(=O)O)[C@H]1N)[C@@H](C)C(=O)N[C@H](CCC(=O)N[C@@H](C)C(=O)NCC(O)CNC(=O)Cc1ccccc1Nc1c(Cl)cccc1Cl)C(N)=O (stereo partly drawn) [Example 6, N-propionyldesmethylmuramyl-L-alanyl-D-isoglutaminyl-L-alanine-3-{2-[2-(2,6-dichlorophenylamino)-phenyl]acetylamino}-2-hydroxypropylamide] | not pyrogenic | –
2 | (1α,β),4,6-tri-O-acetyl-N-propionyldesmethylmuramyl-L-alanyl-D- isoglutaminyl-L-alanine-3-[d-2-(6-methoxy-2-naphthyl]-propionylamino]-2-acetoxypropylamide [Example 21] | – | outstandingly suitable for the prophylaxis and treatment of virus infections
